Consider five compounds from the supplement of paper PMC10307832.

The subject of the first assay is BEN. The assay can be described thus: relative viability (nuclei count vs DMSO), 5 days (fraction); higher = more cells survive. To be noted: first compound 8 µM. Put shortly:
(§1)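 Relative viability equals treated-well nuclei counts divided by vehicle-well nuclei counts. Counts came from 4× images of lung cancer cell lines grown in 1536-well plates for 5 days after pin-tool dosing on the day after seeding. Dosing used one drug alone or a fixed anchor-drug dose plus five library-drug doses (not always all listed) in √10 steps, and values are medians of duplicate plates.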
Take `CCCCCCCCCCCC1=C(O)C(=O)C=C(O)C1=O` [Embelin] + CS(=O)(=O)N1CCN(Cc2cc3nc(-c4cccc5[nH]ncc45)nc(N4CCOCC4)c3s2)CC1 [Pictilisib] (partner 1 µM): the relative viability is 0.556.
On to `CCCCCCCCCCCC1=C(O)C(=O)C=C(O)C1=O` [Embelin] + C[C@@H](Oc1cc(-c2cnn(C3CCNCC3)c2)cnc1N)c1c(Cl)ccc(F)c1Cl [Crizotinib] (partner 1 µM), for which the relative viability came out at 0.849.

In a further assay the test system is LCLC-103H. The description is as above. To be noted: first compound 0.08 µM. Put shortly: as §1
The compound `CCCCCCCCCCCC1=C(O)C(=O)C=C(O)C1=O` [Embelin] + O=C(CCCCCCC(=O)Nc1ccccc1)NO [Vorinostat] (partner 1 µM) yielded a relative viability of 0.851.
In the case of `CCCCCCCCCCCC1=C(O)C(=O)C=C(O)C1=O` [Embelin] + Cc1cc(Nc2cc(N3CCN(C)CC3)nc(Sc3ccc(NC(=O)C4CC4)cc3)n2)n[nH]1 [Tozasertib] (partner 0.1 µM), the relative viability worked out at 0.549.
As for `CCCCCCCCCCCC1=C(O)C(=O)C=C(O)C1=O` [Embelin] + COc1cc2c(Oc3ccc(NC(=O)C4(C(=O)Nc5ccc(F)cc5)CC4)cc3F)ccnc2cc1OCCCN1CCOCC1 [Foretinib] (partner 0.25 µM), the relative viability stood at 0.736.
Regarding `CCCCCCCCCCCC1=C(O)C(=O)C=C(O)C1=O` [Embelin] + CS(=O)(=O)N1CCN(Cc2cc3nc(-c4cccc5[nH]ncc45)nc(N4CCOCC4)c3s2)CC1 [Pictilisib] (partner 1 µM), the relative viability was determined as 0.591.
The compound `CCCCCCCCCCCC1=C(O)C(=O)C=C(O)C1=O` [Embelin] + C[C@@H](Oc1cc(-c2cnn(C3CCNCC3)c2)cnc1N)c1c(Cl)ccc(F)c1Cl [Crizotinib] (partner 1 µM) gave a relative viability of 1.06.

The same assay, now with this note: first compound 0.8 µM.
Compound `CCCCCCCCCCCC1=C(O)C(=O)C=C(O)C1=O` [Embelin] + O=C(CCCCCCC(=O)Nc1ccccc1)NO [Vorinostat] (partner 1 µM) had a relative viability of 0.885.
In turn, `CCCCCCCCCCCC1=C(O)C(=O)C=C(O)C1=O` [Embelin] + Cc1cc(Nc2cc(N3CCN(C)CC3)nc(Sc3ccc(NC(=O)C4CC4)cc3)n2)n[nH]1 [Tozasertib] (partner 0.1 µM) yielded a relative viability of 0.557.
With `CCCCCCCCCCCC1=C(O)C(=O)C=C(O)C1=O` [Embelin] + COc1cc2c(Oc3ccc(NC(=O)C4(C(=O)Nc5ccc(F)cc5)CC4)cc3F)ccnc2cc1OCCCN1CCOCC1 [Foretinib] (partner 0.25 µM), the relative viability came to 0.842.
For `CCCCCCCCCCCC1=C(O)C(=O)C=C(O)C1=O` [Embelin] + CS(=O)(=O)N1CCN(Cc2cc3nc(-c4cccc5[nH]ncc45)nc(N4CCOCC4)c3s2)CC1 [Pictilisib] (partner 1 µM), the relative viability was determined as 0.652.
`CCCCCCCCCCCC1=C(O)C(=O)C=C(O)C1=O` [Embelin] + C[C@@H](Oc1cc(-c2cnn(C3CCNCC3)c2)cnc1N)c1c(Cl)ccc(F)c1Cl [Crizotinib] (partner 1 µM) displayed a relative viability of 1.01.

The assay is the same for the next values; noted with them: first compound 2.53 µM.
With `CCCCCCCCCCCC1=C(O)C(=O)C=C(O)C1=O` [Embelin] + O=C(CCCCCCC(=O)Nc1ccccc1)NO [Vorinostat] (partner 1 µM), the relative viability was 0.75.
`CCCCCCCCCCCC1=C(O)C(=O)C=C(O)C1=O` [Embelin] + Cc1cc(Nc2cc(N3CCN(C)CC3)nc(Sc3ccc(NC(=O)C4CC4)cc3)n2)n[nH]1 [Tozasertib] (partner 0.1 µM) displayed a relative viability of 0.508.
`CCCCCCCCCCCC1=C(O)C(=O)C=C(O)C1=O` [Embelin] + COc1cc2c(Oc3ccc(NC(=O)C4(C(=O)Nc5ccc(F)cc5)CC4)cc3F)ccnc2cc1OCCCN1CCOCC1 [Foretinib] (partner 0.25 µM) gave a relative viability of 0.912.
As to `CCCCCCCCCCCC1=C(O)C(=O)C=C(O)C1=O` [Embelin] + CS(=O)(=O)N1CCN(Cc2cc3nc(-c4cccc5[nH]ncc45)nc(N4CCOCC4)c3s2)CC1 [Pictilisib] (partner 1 µM), the relative viability came out at 0.614.
Compound `CCCCCCCCCCCC1=C(O)C(=O)C=C(O)C1=O` [Embelin] + C[C@@H](Oc1cc(-c2cnn(C3CCNCC3)c2)cnc1N)c1c(Cl)ccc(F)c1Cl [Crizotinib] (partner 1 µM) yielded a relative viability of 1.08.

Still in this assay, the particulars now being: first compound 8 µM.
`CCCCCCCCCCCC1=C(O)C(=O)C=C(O)C1=O` [Embelin] + O=C(CCCCCCC(=O)Nc1ccccc1)NO [Vorinostat] (partner 1 µM): the relative viability worked out at 0.714.
`CCCCCCCCCCCC1=C(O)C(=O)C=C(O)C1=O` [Embelin] + Cc1cc(Nc2cc(N3CCN(C)CC3)nc(Sc3ccc(NC(=O)C4CC4)cc3)n2)n[nH]1 [Tozasertib] (partner 0.1 µM): the relative viability was 0.501.
Turning to `CCCCCCCCCCCC1=C(O)C(=O)C=C(O)C1=O` [Embelin] + COc1cc2c(Oc3ccc(NC(=O)C4(C(=O)Nc5ccc(F)cc5)CC4)cc3F)ccnc2cc1OCCCN1CCOCC1 [Foretinib] (partner 0.25 µM), the relative viability was 0.755.
Still for that read-out and setting: for `CCCCCCCCCCCC1=C(O)C(=O)C=C(O)C1=O` [Embelin] + CS(=O)(=O)N1CCN(Cc2cc3nc(-c4cccc5[nH]ncc45)nc(N4CCOCC4)c3s2)CC1 [Pictilisib] (partner 1 µM) the value was 0.677.
Same read-out and setting: the figure for `CCCCCCCCCCCC1=C(O)C(=O)C=C(O)C1=O` [Embelin] + C[C@@H](Oc1cc(-c2cnn(C3CCNCC3)c2)cnc1N)c1c(Cl)ccc(F)c1Cl [Crizotinib] (partner 1 µM) is 0.959.

A further assay has as its system 201T. Described as above. As to conditions: first compound 0.08 µM. Put shortly: as §1
Regarding `CCCCCCCCCCCC1=C(O)C(=O)C=C(O)C1=O` [Embelin] + O=C(CCCCCCC(=O)Nc1ccccc1)NO [Vorinostat] (partner 1 µM), the relative viability turned out to be 0.993.
Compound `CCCCCCCCCCCC1=C(O)C(=O)C=C(O)C1=O` [Embelin] + Cc1cc(Nc2cc(N3CCN(C)CC3)nc(Sc3ccc(NC(=O)C4CC4)cc3)n2)n[nH]1 [Tozasertib] (partner 0.1 µM) gave a relative viability of 0.934.
Take `CCCCCCCCCCCC1=C(O)C(=O)C=C(O)C1=O` [Embelin] + COc1cc2c(Oc3ccc(NC(=O)C4(C(=O)Nc5ccc(F)cc5)CC4)cc3F)ccnc2cc1OCCCN1CCOCC1 [Foretinib] (partner 0.25 µM): the relative viability came out at 1.14.
In the case of `CCCCCCCCCCCC1=C(O)C(=O)C=C(O)C1=O` [Embelin] + CS(=O)(=O)N1CCN(Cc2cc3nc(-c4cccc5[nH]ncc45)nc(N4CCOCC4)c3s2)CC1 [Pictilisib] (partner 1 µM), the relative viability came to 0.645.
The same measure, in the same setting: the figure for `CCCCCCCCCCCC1=C(O)C(=O)C=C(O)C1=O` [Embelin] + C[C@@H](Oc1cc(-c2cnn(C3CCNCC3)c2)cnc1N)c1c(Cl)ccc(F)c1Cl [Crizotinib] (partner 1 µM) is 1.02.

The same assay, now with this note: first compound 0.8 µM.
`CCCCCCCCCCCC1=C(O)C(=O)C=C(O)C1=O` [Embelin] + O=C(CCCCCCC(=O)Nc1ccccc1)NO [Vorinostat] (partner 1 µM): the relative viability came out at 1.01.
Consider `CCCCCCCCCCCC1=C(O)C(=O)C=C(O)C1=O` [Embelin] + Cc1cc(Nc2cc(N3CCN(C)CC3)nc(Sc3ccc(NC(=O)C4CC4)cc3)n2)n[nH]1 [Tozasertib] (partner 0.1 µM), for which the relative viability is 0.963.
Take `CCCCCCCCCCCC1=C(O)C(=O)C=C(O)C1=O` [Embelin] + COc1cc2c(Oc3ccc(NC(=O)C4(C(=O)Nc5ccc(F)cc5)CC4)cc3F)ccnc2cc1OCCCN1CCOCC1 [Foretinib] (partner 0.25 µM): the relative viability is 1.15.
